From ChEMBL document CHEMBL1201862, “PubChem BioAssay data set” (2004)
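Cultured in 96-well plates, cells were exposed to test compound for 48 hours across five concentrations. At the GI50, growth is halved.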 Active and inactive are the calls of the source. Cut-off read from the data, not from the text of the source: active = GI50 up to about 1.1 µM and inactive = higher.

Legend:
Assay in all cases: NCI anticancer screen, dose series, 48 h
[1] = test system: COLO 205
[2] = test system: DU-145
[3] = test system: EKVX
[4] = test system: HCT-116
[5] = test system: HCT-15
[6] = test system: HOP-92
[7] = test system: HT-29
[8] = test system: KM12
[9] = test system: M14
[10] = test system: MDA-MB-231
[11] = test system: OVCAR-5
[12] = test system: OVCAR-8
[13] = test system: PC-3
[14] = test system: RPMI-8226
[15] = test system: RXF 393
[16] = test system: SF-295
[17] = test system: SN12C
[18] = test system: TK-10
[19] = test system: U-251
[20] = test system: UO-31

Row | Structure (SMILES) | GI50 [1] | GI50 [2] | GI50 [3] | GI50 [4] | GI50 [5] [µM] | GI50 [6] | GI50 [7] | GI50 [8] | GI50 [9] | GI50 [10] | GI50 [11] | GI50 [12] | GI50 [13] | GI50 [14] | GI50 [15] | GI50 [16] | GI50 [17] | GI50 [18] | GI50 [19] | GI50 [20]
1 | CN(C)c1cccc(/C=C(\C#N)c2ccccc2)c1 | 0.533 µM (active) | 1.65 µM (inactive) | 2.14 µM (inactive) | 0.396 µM (active) | 0.219 | 2.94 µM (inactive) | 0.213 µM (active) | 0.1 µM (active) | 0.277 µM (active) | 1.11 µM (active) | 3.72 µM (inactive) | 1.01 µM (active) | 1.12 µM (active) | 0.579 µM (active) | 0.706 µM (active) | 0.574 µM (active) | 1.15 µM (inactive) | 0.944 µM (active) | 0.687 µM (active) | 5.46 µM (inactive)
2 | Oc1ccc(C(=C(Br)c2ccccc2)c2ccc(O)cc2)cc1 | 3.73 µM (inactive) | 13.1 µM (inactive) | 11.5 µM (inactive) | 4.25 µM (inactive) | 3.72 | 10 µM (inactive) | 1.91 µM (inactive) | 3.61 µM (inactive) | 4.15 µM (inactive) | 10.9 µM (inactive) | 17.3 µM (inactive) | 6.58 µM (inactive) | 7.16 µM (inactive) | 4.66 µM (inactive) | 12.1 µM (inactive) | 6.14 µM (inactive) | 5.92 µM (inactive) | 13.8 µM (inactive) | 4.51 µM (inactive) | 6.59 µM (inactive)
3 | COC(=O)[C@H](Cc1ccccc1)NP(=O)(O)OCC1C=CC(n2cc(C)c(=O)[nH]c2=O)O1 (stereo not given in full) | > 100 µM (inactive) | > 100 µM (inactive) | > 100 µM (inactive) | > 100 µM (inactive) | > 100 | > 100 µM (inactive) | > 100 µM (inactive) | > 100 µM (inactive) | > 100 µM (inactive) | > 100 µM (inactive) | > 100 µM (inactive) | > 100 µM (inactive) | > 100 µM (inactive) | > 100 µM (inactive) | > 100 µM (inactive) | > 100 µM (inactive) | > 100 µM (inactive) | > 100 µM (inactive) | > 100 µM (inactive) | > 100 µM (inactive)
4 | CCC1(O)CC(O)c2c(O)c3c(c(O)c2C1C(=O)OC)C(=O)c1cccc(O)c1C3=O (stereo not given) | 2.21 µM (inactive) | 5.42 µM (inactive) | 2.18 µM (inactive) | 2.89 µM (inactive) | 1.54 | 9.31 µM (inactive) | 3.27 µM (inactive) | 1.1 µM (active) | 2.87 µM (inactive) | 2.9 µM (inactive) | 4.86 µM (inactive) | 1.63 µM (inactive) | 2.86 µM (inactive) | 2.21 µM (inactive) | 7.67 µM (inactive) | 2.66 µM (inactive) | 2.92 µM (inactive) | 7.67 µM (inactive) | 3.74 µM (inactive) | 3.18 µM (inactive)
5 | Cn1c(=O)c2nc3c(=O)n(C)c(=O)n(CC(N)=O)c3nc2n(C)c1=O | > 100 µM (inactive) | > 100 µM (inactive) | > 100 µM (inactive) | > 100 µM (inactive) | > 100 | > 100 µM (inactive) | > 100 µM (inactive) | > 100 µM (inactive) | > 100 µM (inactive) | > 100 µM (inactive) | > 100 µM (inactive) | > 100 µM (inactive) | > 100 µM (inactive) | > 100 µM (inactive) | > 100 µM (inactive) | > 100 µM (inactive) | > 100 µM (inactive) | > 100 µM (inactive) | > 100 µM (inactive) | > 100 µM (inactive)
